The values that follow come from patent US12226405B2, “Compounds and compositions for inhibiting the activity of HIF2-alpha and their methods of use” (Novartis AG, priority 2020, dated 2025).

In experiment [1] the target is HIF2α PAS-B domain (236-350, biotinylated on the N-terminus) (Homo sapiens (Human), UniProt Q99814).
Method: The assay buffer contained 50 mM Tris-HCl pH7 (Sigma), 20 mM NaCl (Fluka), 0.02% BSA (Sigma), 0.005% Triton X-100 (Pierce) and 1 mM DTT (Fluka). After a 30 min incubation period, 5 μL Streptavidin PVT SPA Beads (Perkin Elmer) at 1.2 mg/mL, diluted in the buffer, were added.
The subject of experiment [2] is HIF2α-regulated expression of the endogenous target gene hEGLN3 in 786-O cells. As to the kind of experiment: Cellular iScript assay for HIF2α (quantitative RT-PCR of hEGLN3). Type of experiment: cell-based, human. Conditions: Homo sapiens, 786-0, 48 hours incubation. Put shortly:
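786-O cells were exposed to eleven 2-fold compound dilutions for 48 h at 37° C. Lysates underwent one-step TaqMan qRT-PCR for hEGLN3 with beta-actin as reference; 2^(−ΔΔCt) versus DMSO, as % of control, was fit with a four-parameter model to give IC50.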

Sequence of HIF2α PAS-B domain (236-350, biotinylated on the N-terminus) (Q99814 236-350): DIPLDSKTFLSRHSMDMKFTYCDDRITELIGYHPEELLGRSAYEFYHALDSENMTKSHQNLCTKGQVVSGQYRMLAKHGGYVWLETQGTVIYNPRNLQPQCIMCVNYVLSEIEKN

Consider `FC(F)OC1=CC(C(F)(F)F)=CN2C[C@@]3(CCOc4cc(C(F)(F)F)ccc43)N=C12` [Example 44, (S)-8′-(difluoromethoxy)-6′,7-bis(trifluoromethyl)-3′H-spiro[chroman-4,2′-imidazo[1,2-a]pyridine]], for which the IC50 in experiment [1] turned out to be 13 nM; in experiment [2] it was 65 nM.

On to `FC(F)OC1=CC(C(F)(F)F)=CN2C[C@@]3(CCC(F)(F)c4c3ccnc4Cl)N=C12` [Example 31, (S)-1′-chloro-8-(difluoromethoxy)-8′,8′-difluoro-6-(trifluoromethyl)-7′,8′-dihydro-3H,6′H-spiro[imidazo[1,2-a]pyridine-2,5′-isoquinoline]], for which the values for the IC50 in experiment [1] and in experiment [2] were 9 nM and 37 nM, respectively.
